The target of test [1] is NACHT, LRR and PYD domains-containing protein 3 (Mus musculus, UniProt Q8R4B8). Description: Inhibition of NLRP3 inflammasome activation in mouse BMDM cells assessed as reduction in IL-1beta release by ELISA. It is filed as cell-based. On the technique in general: An ELISA detects its analyte on a solid surface through an enzyme-linked reagent.
The target of test [2] is NACHT, LRR and PYD domains-containing protein 3 (Mus musculus) (UniProt Q8R4B8). Description: Inhibition of NLRP3 inflammasome activation in mouse BMDM cells assessed as inhibition of mature IL-1beta release by immunoblotting analysis. It is filed as cell-based. On the technique in general: In western blotting, separated proteins are transferred to a membrane and probed.

The target is the same in test [3]. Briefly: Inhibition of NLRP3 inflammasome activation in mouse BMDM cells assessed as inhibition of caspase-1 release by immunoblotting analysis. It is filed as cell-based.
For test [4], the system named is BMDM. Briefly: Effect on NLRP3 protein expression in mouse BMDM cells. Format: functional, cell-based.
The test system of test [5] is BMDM. Briefly: Effect on pro-caspase-1 protein expression in mouse BMDM cells. It is filed as functional, cell-based.
In test [6] the test system is BMDM. Briefly: Effect on pro-IL-1beta protein expression in mouse BMDM cells. Format: functional, cell-based.

pIC50: −log10 of the molar value. Calls of active or inactive are those of the source. The rule behind the calls is not given here. Some results are limits rather than exact numbers.

Chain of NACHT, LRR and PYD domains-containing protein 3 (Q8R4B8 whole entry, the tested form may be a part): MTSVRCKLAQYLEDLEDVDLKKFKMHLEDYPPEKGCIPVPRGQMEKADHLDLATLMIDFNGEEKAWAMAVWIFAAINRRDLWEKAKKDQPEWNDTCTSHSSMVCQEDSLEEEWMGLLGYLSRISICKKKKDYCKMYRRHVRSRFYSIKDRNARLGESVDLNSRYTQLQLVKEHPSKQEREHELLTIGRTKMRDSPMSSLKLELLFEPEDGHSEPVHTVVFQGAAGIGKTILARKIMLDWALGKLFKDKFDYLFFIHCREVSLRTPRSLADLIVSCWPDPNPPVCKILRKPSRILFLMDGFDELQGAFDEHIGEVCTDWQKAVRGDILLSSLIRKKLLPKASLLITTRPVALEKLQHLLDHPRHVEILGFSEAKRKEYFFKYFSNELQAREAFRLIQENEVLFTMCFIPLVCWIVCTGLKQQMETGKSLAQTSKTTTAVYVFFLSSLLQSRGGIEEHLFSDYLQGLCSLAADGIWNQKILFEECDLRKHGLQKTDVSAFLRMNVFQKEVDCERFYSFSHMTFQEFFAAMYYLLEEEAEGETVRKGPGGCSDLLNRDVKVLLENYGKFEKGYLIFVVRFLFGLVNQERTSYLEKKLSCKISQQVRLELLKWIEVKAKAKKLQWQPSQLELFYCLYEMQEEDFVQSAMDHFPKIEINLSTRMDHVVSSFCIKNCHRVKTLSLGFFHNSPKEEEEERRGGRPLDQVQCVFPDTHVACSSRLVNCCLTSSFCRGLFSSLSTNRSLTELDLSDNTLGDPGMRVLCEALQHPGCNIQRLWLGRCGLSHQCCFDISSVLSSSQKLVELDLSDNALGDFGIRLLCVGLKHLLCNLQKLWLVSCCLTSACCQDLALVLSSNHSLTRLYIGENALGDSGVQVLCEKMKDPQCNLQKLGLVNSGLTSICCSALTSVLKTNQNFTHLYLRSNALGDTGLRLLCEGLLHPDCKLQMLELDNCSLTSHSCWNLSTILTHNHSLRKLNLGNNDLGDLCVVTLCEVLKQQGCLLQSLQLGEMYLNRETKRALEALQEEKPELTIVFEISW
Chain of NACHT, LRR and PYD domains-containing protein 3 (Mus musculus) (Q8R4B8 whole entry, the tested form may be a part): as above

As for `COc1cc(-c2cc(=O)c3c(O)cc(O)c(CC=C(C)C)c3o2)ccc1O`, in test [1], the pIC50 (commonly the negative decadic logarithm of the IC50, by convention in mol/L) was 4.39.

Turning to `COc1ccc(-c2cc(=O)c3c(O)cc4c(c3o2)C=CC(C)(C)O4)cc1`, the pIC50 in test [1] is < 4.00.

Turning to `COc1ccc(-c2cc(=O)c3c(O)cc(O)c(CC=C(C)C)c3o2)cc1`, in test [1], the negative logarithm of the IC50 (pIC50) was 4.94.

Regarding `COc1cc(-c2cc(=O)c3c(O)cc4c(c3o2)C=CC(C)(C)O4)ccc1O`, the pIC50 in test [1] was < 4.00.

For `CC(C)=CCc1c(O)cc2oc(-c3ccc(O)c(O)c3)c(O)c(=O)c2c1O` [GANCAONIN P], the pIC50 in test [1] is 4.69.

On to `O=c1c(O)c(-c2ccc(O)cc2)oc2cc(O)cc(O)c12` [KAEMPFEROL], for which the pIC50 in test [1] is < 4.00.

In the case of `COc1cc(C2CC(=O)c3c(O)cc(O)c(CC=C(C)C)c3O2)c(O)cc1O` (stereo not given) [KUSHENOL W], the pIC50 in test [1] is 4.76.

As for `CC(C)=CCc1c(O)cc2oc(-c3ccc(O)cc3)c(O)c(=O)c2c1O` [LICOFLAVONOL], in test [1], the pIC50 was 5.07.

As for `CC(C)=CCC/C(C)=C/Cc1c(O)cc2oc(-c3ccc(O)cc3)c(O)c(=O)c2c1O` [MACARANGIN], the pIC50 in test [1] was 5.47. The inhibition result in test [2] and in test [3] was “Dose-Dependent Effect” in each case. Further, the result in test [4], in test [5] and in test [6] was inactive.

In the case of `O=c1c(O)c(-c2ccc(O)c(O)c2)oc2cc(O)cc(O)c12` [QUERCETIN], the pIC50 in test [1] was 4.43.

The record behind these values is ChEMBL document CHEMBL5550136, “Total synthesis/semi-synthesis of natural isopentenyl flavonoids with inhibitory activity on NLRP3 inflammasome” (Bioorg Med Chem Lett, 2024).
